Columns and labels:
LTB4 = test: serum LTB4 levels in lymphedema mice; assay type: in vivo, mouse; conditions: therapies initiated on d3, assessed on d24
Procedure: (§1) All small molecule drugs were administered through daily intraperitoneal injection.
Quantification of LTB4, PGE2 and S1P with LC-MS/MS. Briefly, LTB4, PGE2 and S1P were separated from serum with an ACE reverse phase C18 HPLC column. Formic acid 0.5% in 5 mM NH4Ac (A) and formic acid 0.5% in acetonitrile/water (9/1) (B) were used as the mobile phase. […] The internal standard of this method was Carbutamide. The quantification limit was 1 ng/ml. The calibration range was 1-2000 ng/ml.

Notch signaling = Notch signaling in mouse lymphedema (NICD, Hey1, EphrinB2); assay type: in vivo; conditions: WT mice
Procedure: as §1
Western Blot HLECs were lysed with RIPA buffer containing protease and phosphatase inhibitors. Lysates were sonicated briefly and centrifuged. The supernatant was collected and protein concentration was determined by BCA assay. 60 µg of protein were resolved on a 10% SDS-PAGE gel, transferred to a nitrocellulose membrane, blocked with 5% milk and probed with one of the following antibodies: anti-Sphk1 (3297,Cell Signaling); antip-Sphk1(SP1641, ECM Biosciences); anti-NICD (ab8925,Abcam), anti-VEGFR3 (AF743,R&D); anti-DLL4 (ab7280, Abcam). Actin was used to normalize the total protein. […] Images were acquired by Zeiss 710 confocal microscopy and analyzed using ImageJ software.
Quantitative RT-PCR. Quantitative PCR (qRT-PCR) was performed using FastStart SYBR Green (Roche) on a Lightcycler 480. mRNA expression relative to GAPDH mRNA levels were calculated using the delta-delta threshold cycle (ΔΔCT) method. […]

S1P, S1pr1, Sphk1, eNOS = test: S1P signaling in mouse lymphedema; assay type: in vivo; conditions: therapy initiated 3d after surgery
Procedure: as §1
Quantification of LTB4, PGE2 and S1P with LC-MS/MS. Briefly, LTB4, PGE2 and S1P were separated from serum with an ACE reverse phase C18 HPLC column. Formic acid 0.5% in 5 mM NH4Ac (A) and formic acid 0.5% in acetonitrile/water (9/1) (B) were used as the mobile phase. Lipids were detected with positive multiple reaction monitor (MRM) scanning at 335.16/194.80 m/z for LTB4, 351.20/189.50 m/z for PGE2 and 330.20/264.40 m/z for S1P using a Sciex API-4000 MS/MS combined with a Shimazu 20A HPLC system. The internal standard of this method was Carbutamide. The quantification limit was 1 ng/ml. The calibration range was 1-2000 ng/ml. The accuracy of the standards and control samples ranged from 88.7% to 120%.

LEC S1pr1−/− mice = test: lymphedema surgery in LEC S1pr1-/- mice; assay type: in vivo, mouse
Excerpt: To generate lymphatic endothelial specific tdTomato reporter mice (Prox1-Cre-ER-tdTomato), Prox1-Cre-ER mice were crossed with tdTomato mice. To create lymphatic endothelial cell specific Notch1 or S1pr1 conditional knockouts, Prox1-Cre-ER mice were crossed with Notch1loxp/loxp or S1pr1loxp/loxp mice. Mice with Prox1-Cre-ER and both target alleles floxed by Prox1-Cre-ER/Notch1^loxp/loxp or Prox1-Cre-ER/S1pr1^loxp/loxp were considered to be either lymphatic endothelial cell-specific Notch1 knockout (LEC Notch1−/−) or S1pr1 knockout (LEC S1pr1^−/−), respectively. Mice expressing Prox1-Cre-ER were used as WT controls. […] Cre-mediated gene knockout efficiency was evaluated by enumerating Notch1- or S1PR1-expressing lymphatic endothelial cells or by qRT-PCR measurements of Notch1 or S1pr1 transcripts in the lymphatic endothelial cells, sorted by flow cytometry. […]
Tail volume quantitation. Tail-volume measurements at each designated time were quantified by observers blinded to the treatment status of the subjects. Tail volumes were calculated through a digital photographic technique pre-operatively, and post-operatively (d3, d9, d14, d20, and d24), using an Olympus D520 Zoom digital camera at SHQ resolution at a fixed distance from the subject (37 cm), as previously described. […]

`CC(C)C[C@H](NC(=O)[C@@H](O)[C@H](N)Cc1ccccc1)C(=O)O` [bestatin, (2S)-2-[[(2S,3R)-3-amino-2-hydroxy-4-phenylbutanoyl]amino]-4-methylpentanoic acid] was tested, and the “serum LTB4 levels” value (LTB4) was “effectively reduced”, the “Hey1 and EphrinB2 expression in diseased lymphatics” value (Notch signaling) was “normalized” and the “NICD nuclear accumulation in mouse lymphedema” value (Notch signaling) was “restored”. The “S1P and S1pr1 levels” value (S1P, S1pr1, Sphk1, eNOS) was “restored”, the “Sphk1 and eNOS expression” value (S1P, S1pr1, Sphk1, eNOS) was “normalized” and the “lymphatic Sphk1 and eNOS expression after treatment” value (LEC S1pr1−/− mice) was “remaining low”. The “reversal of lymphedema (tail volume, dermal thickness, lymphatic dilation)” value (LEC S1pr1−/− mice) was “failed to reverse lymphedema”.

Reference: US10500178B2, “LTB4 inhibition to prevent and treat human lymphedema” (The Board of Trustees of the Leland Stanford Junior …, priority 2015, dated 2019)
